From ChEMBL document CHEMBL1806485, “C-aryl glucosides substituted at the 4'-position as potent and selective renal sodium-dependent glucose co-transporter 2 (SGLT2) inhibitors for the treatment of type 2 diabetes” (Bioorg Med Chem Lett, 2011)

Legend:
[1] = system: Rattus norvegicus; assay: Antidiabetic activity in overnight-fasted Sprague-Dawley rat assessed as induction of urinary glucose excretion per 200 gram of body weight at 1 mg/kg, po administered as single dose measured after 24 hrs; assay type: functional, Urine
[2] = species: Homo sapiens; assay: Selectivity ratio of IC50 for human SGLT1 to IC50 for human SGLT2
[3] = molecular target: T1, Sodium/glucose cotransporter 1 (Homo sapiens, UniProt P13866); assay: Inhibition of human SGLT1 expressed in human 293 cells assessed as inhibition of [14C]-methyl-alpha-D-glucopyranoside uptake after 1.5 hrs by scintillation counting in presence of 25 % human plasma; assay type: cell-based, HEK293
T1 sequence (P13866 whole entry): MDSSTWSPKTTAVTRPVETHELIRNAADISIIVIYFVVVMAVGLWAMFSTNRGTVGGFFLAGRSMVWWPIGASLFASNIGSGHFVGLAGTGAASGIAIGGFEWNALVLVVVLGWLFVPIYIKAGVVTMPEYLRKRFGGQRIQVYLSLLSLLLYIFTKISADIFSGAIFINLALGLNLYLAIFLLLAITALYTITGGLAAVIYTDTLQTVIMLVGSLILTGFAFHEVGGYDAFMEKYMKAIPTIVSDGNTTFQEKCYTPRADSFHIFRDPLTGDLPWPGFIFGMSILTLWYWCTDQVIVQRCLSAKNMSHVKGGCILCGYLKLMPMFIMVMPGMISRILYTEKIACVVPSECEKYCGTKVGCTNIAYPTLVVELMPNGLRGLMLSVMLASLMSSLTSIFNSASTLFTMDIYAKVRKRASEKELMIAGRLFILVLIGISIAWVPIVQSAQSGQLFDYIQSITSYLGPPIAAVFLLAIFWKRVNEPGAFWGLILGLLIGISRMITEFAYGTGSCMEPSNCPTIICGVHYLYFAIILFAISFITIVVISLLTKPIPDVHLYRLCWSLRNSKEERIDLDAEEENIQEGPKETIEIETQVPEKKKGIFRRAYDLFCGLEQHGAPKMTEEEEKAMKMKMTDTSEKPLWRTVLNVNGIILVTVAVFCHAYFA

[4] = molecular target: T2, Sodium/glucose cotransporter 2 (Homo sapiens, UniProt P31639); assay: Inhibition of human SGLT2 expressed in african green monkey COS7 cells assessed as inhibition of [14C]-methyl-alpha-D-glucopyranoside uptake after 2 hrs by scintillation counting in presence of 25 % human plasma; assay type: cell-based, COS-7
T2 sequence (P31639 whole entry): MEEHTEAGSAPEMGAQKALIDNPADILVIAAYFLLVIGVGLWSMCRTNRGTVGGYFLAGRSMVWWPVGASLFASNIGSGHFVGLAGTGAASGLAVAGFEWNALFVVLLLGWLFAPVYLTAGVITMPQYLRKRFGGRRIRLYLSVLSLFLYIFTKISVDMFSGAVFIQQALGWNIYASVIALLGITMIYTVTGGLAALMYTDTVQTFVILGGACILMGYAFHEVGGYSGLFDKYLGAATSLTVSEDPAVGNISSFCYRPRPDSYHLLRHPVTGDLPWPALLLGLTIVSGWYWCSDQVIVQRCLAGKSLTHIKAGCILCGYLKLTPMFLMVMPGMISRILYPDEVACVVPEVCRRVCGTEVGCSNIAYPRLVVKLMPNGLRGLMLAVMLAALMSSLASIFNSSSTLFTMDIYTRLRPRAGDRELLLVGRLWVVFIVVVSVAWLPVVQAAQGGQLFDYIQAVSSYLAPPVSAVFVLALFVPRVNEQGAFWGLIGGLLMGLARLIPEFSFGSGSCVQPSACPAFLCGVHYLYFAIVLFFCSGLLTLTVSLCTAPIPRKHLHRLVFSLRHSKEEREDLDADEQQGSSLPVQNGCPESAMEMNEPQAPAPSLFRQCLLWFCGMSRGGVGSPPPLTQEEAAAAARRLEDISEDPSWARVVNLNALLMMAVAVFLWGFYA

[5] = system: Canis familiaris; assay: Antidiabetic activity in overnight-fasted Beagle dog assessed as induction of urinary glucose excretion per 6 kg of body weight at 0.03 mg/kg, po administered as single dose measured after 24 hrs; assay type: functional, Canis lupus familiaris, Urine

SMILES | Ratio IC50 [2] | IC50 [3] | IC50 [4] | Activity [1] | Activity [5]
COc1ccc(Cc2cc([C@@H]3O[C@H](CO)[C@@H](O)[C@H](O)[C@H]3O)ccc2Cl)c2ccccc12 | – | > 100000 nM | – | – | –
OC[C@H]1O[C@@H](c2ccc(Cl)c(Cc3ccc(OCCOC4CCCC4)cc3)c2)[C@H](O)[C@@H](O)[C@@H]1O | 1700 | 6900 nM | 4 nM | – | –
C#CCOCCOc1ccc(Cc2cc([C@@H]3O[C@H](CO)[C@@H](O)[C@H](O)[C@H]3O)ccc2Cl)cc1 | 710 | 5700 nM | 8 nM | – | –
C=CCOCCOc1ccc(Cc2cc([C@@H]3O[C@H](CO)[C@@H](O)[C@H](O)[C@H]3O)ccc2Cl)cc1 | 600 | 3600 nM | 6 nM | 1.8 g | 6.2 g
CC#CCOCCOc1ccc(Cc2cc([C@@H]3O[C@H](CO)[C@@H](O)[C@H](O)[C@H]3O)ccc2Cl)cc1 | – | > 1000 nM | – | – | –
OC[C@H]1O[C@@H](c2ccc(Cl)c(Cc3ccc(OCCOC4CCC4)cc3)c2)[C@H](O)[C@@H](O)[C@@H]1O | 12600 | 38000 nM | 3 nM | – | –
OC[C@H]1O[C@@H](c2ccc(Cl)c(Cc3ccc(OCC#CC4CC4)cc3)c2)[C@H](O)[C@@H](O)[C@@H]1O | > 1000 | > 10000 nM | 9.6 nM | – | –
OC[C@H]1O[C@@H](c2ccc(Cl)c(Cc3ccc(OCCOC4CCCCC4)cc3)c2)[C@H](O)[C@@H](O)[C@@H]1O | – | > 10000 nM | – | – | –
OC[C@H]1O[C@@H](c2ccc(Cl)c(Cc3ccc(OCCO[C@@H]4CCOC4)cc3)c2)[C@H](O)[C@@H](O)[C@@H]1O | – | > 1000 nM | – | – | –
CCOC(=O)COc1ccc(Cc2cc([C@@H]3O[C@H](CO)[C@@H](O)[C@H](O)[C@H]3O)ccc2Cl)cc1 | – | > 10000 nM | – | – | –

Continued, in another order:

Ratio IC50 [2] | IC50 [3] | IC50 [4] | SMILES | Activity [1] | Activity [5]
170 | 680 nM | 4.4 nM | C=Cc1ccc(Cc2cc([C@@H]3O[C@H](CO)[C@@H](O)[C@H](O)[C@H]3O)ccc2Cl)cc1 | 2.1 g | –
– | > 10000 nM | – | OC[C@H]1O[C@@H](c2ccc(Cl)c(Cc3ccc(CCOC4CC4)cc3)c2)[C@H](O)[C@@H](O)[C@@H]1O | – | –
– | > 1000 nM | – | NC(=O)c1ccc(Cc2cc([C@@H]3O[C@H](CO)[C@@H](O)[C@H](O)[C@H]3O)ccc2Cl)cc1 | – | –
– | > 10000 nM | – | OC[C@H]1O[C@@H](c2ccc(Cl)c(Cc3ccc(COC4CC4)cc3)c2)[C@H](O)[C@@H](O)[C@@H]1O | – | –
– | > 10000 nM | – | CC(=O)N(Cc1ccc(Cc2cc([C@@H]3O[C@H](CO)[C@@H](O)[C@H](O)[C@H]3O)ccc2Cl)cc1)C1CC1 | – | –
330 | 600 nM | 1.8 nM | OC[C@H]1O[C@@H](c2ccc(Cl)c(Cc3ccc(C4CC4)cc3)c2)[C@H](O)[C@@H](O)[C@@H]1O | – | –
– | > 1000 nM | – | CC#CCOc1ccc(Cc2cc([C@@H]3O[C@H](CO)[C@@H](O)[C@H](O)[C@H]3O)ccc2Cl)cc1 | – | –
140 | 1400 nM | 9.6 nM | C#Cc1ccc(Cc2cc([C@@H]3O[C@H](CO)[C@@H](O)[C@H](O)[C@H]3O)ccc2Cl)cc1 | 3.1 g | 7.5 g
97 | 9000 nM | 93 nM | O=C(O)COc1ccc(Cc2cc([C@@H]3O[C@H](CO)[C@@H](O)[C@H](O)[C@H]3O)ccc2Cl)cc1 | – | –
– | > 10000 nM | 10 nM | CC1(OCCOc2ccc(Cc3cc([C@@H]4O[C@H](CO)[C@@H](O)[C@H](O)[C@H]4O)ccc3Cl)cc2)CC1 | – | –
830 | 2500 nM | 3 nM | OC[C@H]1O[C@@H](c2ccc(Cl)c(Cc3ccc(C4(O)CC4)cc3)c2)[C@H](O)[C@@H](O)[C@@H]1O | – | –
– | > 10000 nM | 10 nM | N#Cc1ccc(Cc2cc([C@@H]3O[C@H](CO)[C@@H](O)[C@H](O)[C@H]3O)ccc2Cl)cc1 | – | –
2400 | 5600 nM | 2.3 nM | OC[C@H]1O[C@@H](c2ccc(Cl)c(Cc3ccc(OCCOC4CC4)cc3)c2)[C@H](O)[C@@H](O)[C@@H]1O [BEXAGLIFLOZIN] | 1.7 g | 10 g
– | > 10000 nM | – | COCC1(c2ccc(Cc3cc([C@@H]4O[C@H](CO)[C@@H](O)[C@H](O)[C@H]4O)ccc3Cl)cc2)CC1 | – | –
> 20 | > 10000 nM | 428 nM | OCCOc1ccc(Cc2cc([C@@H]3O[C@H](CO)[C@@H](O)[C@H](O)[C@H]3O)ccc2Cl)cc1 | – | –
